Data published in patent US20210285031A1, “FRET BASED PROTEIN BIOSENSOR FOR DETECTION OF CYCLIC DINUCLEOTIDES” (University of Washington, priority 2020, published 2021).

How the values were obtained:
[1] = target: T1, CDA5 variant Y34A (parent CDA5, Lmo0553 Bateman domain) (Listeria monocytogenes, UniProt Q8Y9H5, Y34A); experiment: DRaCALA binding assay, CDA5 Y34A
Experimental: (§3) It was hypothesized that by replacing the stabilizing tyrosine ring with an alanine (Y34A), c-di-AMP binding would be minimized in a manner unlikely to disrupt protein stability. […] Next, increasing concentrations of c-di-AMP were added to purified CDA5 and Y34A CDA5 and analyzed by plate reader assay for FRET response.

[2] = test system: STING; conditions: background; cited from earlier work
[3] = target: T2, CDA5 (eCFP-Lmo0553 Bateman domain (truncated at N-127)-eYFP FRET fusion; SEQ ID NO:36, Bateman domain SEQ ID NO:35) (Listeria monocytogenes, UniProt Q8Y9H5); experiment: In vitro FRET measurement, CDA5
[4] = target: T3, full length Lmo0553 fused to eCFP (N terminus) and eYFP (C terminus) (Listeria monocytogenes, UniProt Q8Y9H5); experiment: FRET response, full length Lmo0553 fusion; assay type: biochemical
T3 construct: recombinant, purified
Text: To leverage these structural rearrangements, the FRET pair eCFP and eYFP were respectively fused to the N and C termini of full length Lmo0553. […] Additional engineering may have allowed for the generation of a FRET biosensor utilizing full length Lmo0553, but without a response to optimize, these efforts would have been arduous and potentially unsuccessful.

[5] = target: T1, CDA5 variant Y34A (parent CDA5, Lmo0553 Bateman domain); experiment: In vitro FRET measurement, CDA5 Y34A; conditions: increasing concentrations of c-di-AMP
Experimental: as §3

[6] = target: Listeria monocytogenes Lmo0553, full length (Listeria monocytogenes, UniProt Q8Y9H5); experiment: DRaCALA radioactive nucleotide binding assay, full length Lmo0553
[7] = target: T2, CDA5 (eCFP-Lmo0553 Bateman domain (truncated at N-127)-eYFP FRET fusion; SEQ ID NO:36, Bateman domain SEQ ID NO:35); experiment: DRaCALA radioactive nucleotide binding assay, CDA5
[8] = target: T4, murine STING CTD (mSTING-CTD; CDN binding domain SEQ ID NO:33) (Mus musculus, UniProt Q3TBT3); experiment: DRaCALA radioactive nucleotide binding assay, STING-CTD; conditions: 500 μM unlabeled nucleotide, ~1 nM [32P] 2′3′-cGAMP
T4 construct: 6xHis; made in house; host or cells: E. coli Rosetta (DE3)pLysS
T4 sequence (Q3TBT3 134-378 limits assumed): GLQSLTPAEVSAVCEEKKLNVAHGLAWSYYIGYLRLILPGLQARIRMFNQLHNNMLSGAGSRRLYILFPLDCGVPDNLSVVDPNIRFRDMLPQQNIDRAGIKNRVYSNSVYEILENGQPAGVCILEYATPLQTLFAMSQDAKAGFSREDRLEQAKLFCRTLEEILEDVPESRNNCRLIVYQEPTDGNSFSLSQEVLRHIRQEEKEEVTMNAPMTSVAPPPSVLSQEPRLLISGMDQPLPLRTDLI
Text: (§1) FIGS. 1A-1H. BioSTING Design and Optimization. (1A) Schematic representation of full-length STING (top) and BioSTING with additional GGSGG linker between mTFP and STING-CTD (bottom). Abbreviations are defined as follows: TM (transmembrane region), DD (dimerization domain), CBD (CDN binding domain), and CTT (C-terminal tail). (1B) Overlay and structural alignment of human STING CTD in apo (“blue”) and c-di-GMP bound (“gray”) states (PDB 4F5E and 4F5D, respectively). […] The N and C-terminal helices of the CTD are highlighted with the terminal residues in red and their associated displacement following ligand binding labeled in angstroms. (1C) Model of the FRET increase which occurs upon CDN binding. Generated with Biorender.com. […] In all panels, individual data points of n=2 biological replicates are shown.
FIGS. 6A and 6B. BioSTING development and characterization.
(§2) Finally, the dissociation kinetics were monitored by determining the rate that cold nucleotide could compete off bound radioactive nucleotide. […] [^32P] […] Binding assays were performed in binding buffer [40 mM Tris pH 7.5, 100 mM NaCl, 20 mM MgCl2] at room temperature.

[9] = target: T5, BioSTING (Mus musculus, UniProt Q3TBT3); experiment: DRaCALA binding specificity: excess unlabeled nucleotides competing with [32P] 2′3′-cGAMP; design: species or system murine; conditions: 500 μM excess unlabeled nucleotide, ~1 nM [32P] 2′3′-cGAMP
T5 construct: made in house; host or cells: E. coli Rosetta (DE3)pLysS
T5 sequence (Q3TBT3 with tags, fused parts or gaps): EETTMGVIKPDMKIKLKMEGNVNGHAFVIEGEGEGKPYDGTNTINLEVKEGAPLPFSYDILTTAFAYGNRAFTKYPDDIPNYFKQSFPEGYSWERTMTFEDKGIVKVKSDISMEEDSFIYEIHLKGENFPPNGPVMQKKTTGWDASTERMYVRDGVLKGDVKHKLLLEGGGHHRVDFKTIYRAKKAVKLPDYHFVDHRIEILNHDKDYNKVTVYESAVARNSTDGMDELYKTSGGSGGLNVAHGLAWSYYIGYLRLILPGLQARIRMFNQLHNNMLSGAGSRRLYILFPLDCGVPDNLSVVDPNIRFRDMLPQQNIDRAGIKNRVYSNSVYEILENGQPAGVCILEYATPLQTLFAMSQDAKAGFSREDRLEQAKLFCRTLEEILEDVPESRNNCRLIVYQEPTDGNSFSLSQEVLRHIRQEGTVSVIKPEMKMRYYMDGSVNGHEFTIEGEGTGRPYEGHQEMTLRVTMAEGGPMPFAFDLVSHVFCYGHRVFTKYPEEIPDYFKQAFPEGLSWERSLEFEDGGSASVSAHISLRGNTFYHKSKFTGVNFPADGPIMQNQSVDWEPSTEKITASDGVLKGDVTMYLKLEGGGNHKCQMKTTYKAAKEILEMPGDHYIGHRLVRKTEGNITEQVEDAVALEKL

[10] = target: T6, BioSTING (mTFP-GGSGG-murine STING CTD (L152-E335)-mKO2 FRET fusion; SEQ ID NO:34, CDN binding domain SEQ ID NO:33) (Mus musculus, UniProt Q3TBT3); experiment: DRaCALA radioactive nucleotide binding assay, BioSTING; conditions: 500 μM unlabeled nucleotide, ~1 nM [32P] 2′3′-cGAMP
T6 construct: His tag (inferred from Ni-NTA purification and the pET15b vector); made in house; host or cells: E. coli Rosetta (DE3)pLysS
T6 sequence (Q3TBT3 with tags, fused parts or gaps): T5 sequence (Q3TBT3 with tags, fused parts or gaps)
Text: as §1, §2

[11] = target: T7, cGAS (recombinant SUMO-mcGAS) (Mus musculus, UniProt Q8C6L5); experiment: cGAS activity assay measuring 2′3′-cGAMP production using BioSTING; assay type: biochemical; conditions: fixed cGAS; 250 μM ATP, 250 μM GTP, 50 ng ISD; 37° C.
T7 construct: product read by BioSTING
T7 sequence (Q8C6L5 whole entry): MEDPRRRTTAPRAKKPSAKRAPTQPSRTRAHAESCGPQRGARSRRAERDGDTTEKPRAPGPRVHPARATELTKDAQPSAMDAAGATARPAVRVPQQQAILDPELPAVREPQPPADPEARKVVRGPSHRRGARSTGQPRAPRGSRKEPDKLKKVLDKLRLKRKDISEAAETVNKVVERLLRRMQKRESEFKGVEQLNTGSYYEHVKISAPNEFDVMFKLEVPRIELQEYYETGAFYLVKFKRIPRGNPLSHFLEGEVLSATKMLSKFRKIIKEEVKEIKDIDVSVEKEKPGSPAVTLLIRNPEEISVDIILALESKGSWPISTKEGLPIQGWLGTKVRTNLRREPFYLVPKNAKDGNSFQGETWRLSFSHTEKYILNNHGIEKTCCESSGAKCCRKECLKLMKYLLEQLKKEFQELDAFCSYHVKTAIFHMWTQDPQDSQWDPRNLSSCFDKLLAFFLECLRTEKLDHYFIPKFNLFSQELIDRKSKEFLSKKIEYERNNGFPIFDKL
Experimental: FIGS. 2A-2F. Real time measurement of CDN synthesis and determination of CDN levels from cellular extracts. […]. In panels (2B)-(2D) and (2F), data are presented as mean±s.d. of n=3 (2B, 2F) or n=8 (2C, 2D) biological replicates.
BioSTING FRET assays are carried out in a 96-well format using a fluorescent plate reader making it amenable to in vitro high throughput screening efforts (FIG. 7B). […]. In addition to screening for modulators of CDN synthase activity, BioSTING could also potentially be used to screen directly for STING agonists and antagonists.
Enzyme assays were initiated by the addition of 1 mM ATP, 1 mM GTP and 1 μg ISD (FIGS. 2B, 7A, and 7B) or by the addition of 250 μM ATP, 250 μM GTP, and 50 ng ISD (FIGS. 2C, 2D, and 7C).

[12] = test system: cGAS; conditions: literature value (Pfizer); read-out: reported IC50; cited from earlier work
[13] = excess (500 μM) unlabeled c-di-AMP, DRaCALA

Question: For `Nc1ncnc2c1ncn2[C@@H]1O[C@@H]2COP(=O)(O)O[C@H]3[C@@H](O)[C@H](n4cnc5c(N)ncnc54)O[C@@H]3COP(=O)(O)O[C@H]2[C@H]1O` [3′3′-c-di-AMP, 3′3′-cyclic di-adenosine monophosphate], which c-di-AMP binding [1] is on record?
Answer: c-di-AMP bound to CDA5 but not the Y34A CDA5 point mutant control

Question: What about the “affinity for STING relative to 2′3′-cGAMP” value [2] of the same compound?
Answer: markedly reduced affinities

Question: And the EC50 [3]?
Answer: 0.38 µM

Question: What about the “kon (less than the sampling limit)” value ([3]; FRET responses stable immediately upon addition of c-di-AMP) of the same compound?
Answer: < 10 s

Question: And the Emax ([3]; read-out: FRET increase)?
Answer: 23%

Question: What about the “FRET response upon the addition of c-di-AMP” value [4] of the same compound?
Answer: no FRET response was observed

Question: And the “FRET increase upon the addition of c-di-AMP” value [5]?
Answer: CDA5 but not Y34A CDA5 produced a robust FRET increase

Question: What about the Kd [6] of the same compound?
Answer: 4.83 µM

Question: What about the “competition of bound [32P] c-di-AMP by unlabeled nucleotide” value [6] of the same compound?
Answer: only unlabeled c-di-AMP

Question: What about the “koff (time for competition by unlabeled c-di-AMP)” value [6, 13] of the same compound?
Answer: completely within two seconds

Question: And the Kd [7]?
Answer: 5.87 µM

Question: And the “competition of bound [32P] c-di-AMP by unlabeled nucleotide” value [7]?
Answer: only unlabeled c-di-AMP

Question: And the “koff (time for competition by unlabeled c-di-AMP)” value [7, 13]?
Answer: completely within two seconds

Question: For `Nc1nc2c(ncn2[C@@H]2O[C@@H]3COP(=O)(O)O[C@H]4[C@@H](O)[C@H](n5cnc6c(N)ncnc65)O[C@@H]4COP(=O)(O)O[C@H]3[C@H]2O)c(=O)[nH]1` [3′3′-cGAMP, 3′,3′-cyclic GMP AMP], which “affinity for STING relative to 2′3′-cGAMP” value [2] is on record?
Answer: markedly reduced affinities

Question: What does the source list for `Nc1ncnc2c1ncn2[C@@H]1O[C@H](COP(=O)(O)OP(=O)(O)OP(=O)(O)O)[C@@H](O)[C@H]1O` [ATP]?
Answer: competition of bound [32P] 2′3′-cGAMP by unlabeled nucleotide [8]: not ATP, GTP, cAMP, or cGMP could compete off; competing off bound [32P] 2′3′-cGAMP [9]: not; competition of bound [32P] 2′3′-cGAMP by unlabeled nucleotide [10]: not ATP, GTP, cAMP, or cGMP could compete off

Question: Which “competition of bound [32P] 2′3′-cGAMP by unlabeled nucleotide” value (“competition of bound [32P] 2′3′-cGAMP” for short) [8] does the source give for `Nc1nc2c(ncn2[C@@H]2O[C@H](COP(=O)(O)OP(=O)(O)OP(=O)(O)O)[C@@H](O)[C@H]2O)c(=O)[nH]1` [GTP] here?
Answer: not ATP, GTP, cAMP, or cGMP could compete off

Question: What about the “competing off bound [32P] 2′3′-cGAMP” value [9] of the same compound?
Answer: not

Question: And the “competition of bound [32P] 2′3′-cGAMP” value [10]?
Answer: not ATP, GTP, cAMP, or cGMP could compete off

Question: For `O=C(NC1CCCCC1C(=O)O)c1cnn2c(O)cc(-c3ccccc3)nc12` (centres unmarked) [PF-06928215], which IC50 [11] is on record?
Answer: ~12 µM

Question: What about the IC50 [12] of the same compound?
Answer: 5 µM

Question: For `Nc1nc2c(ncn2[C@@H]2O[C@@H]3COP(=O)(O)O[C@H]4[C@@H](O)[C@H](n5cnc6c(=O)[nH]c(N)nc65)O[C@@H]4COP(=O)(O)O[C@H]3[C@H]2O)c(=O)[nH]1` [c-di-GMP, 3′,3′-cyclic di-GMP], which “affinity for STING relative to 2′3′-cGAMP” value [2] is on record?
Answer: markedly reduced affinities

Question: Which “competition of bound [32P] 2′3′-cGAMP” value [8] does the source give for `Nc1nc2c(ncn2[C@@H]2O[C@@H]3COP(=O)(O)O[C@H]3[C@H]2O)c(=O)[nH]1` [cGMP] here?
Answer: not ATP, GTP, cAMP, or cGMP could compete off

Question: What about the “competing off bound [32P] 2′3′-cGAMP” value [9] of the same compound?
Answer: not

Question: And the “competition of bound [32P] 2′3′-cGAMP” value [10]?
Answer: not ATP, GTP, cAMP, or cGMP could compete off
